ChEMBL document CHEMBL2321830 (J Med Chem, 2013)
Residue numbers refer to the chain shown, from its start.

How the values were obtained:
[1] = target: T1, Aldo-keto reductase family 1 member C3 (Homo sapiens, UniProt P42330); experiment: Inhibition of human recombinant AKR1C3-mediated NADP+-dependent oxidation of S-(+)-1,2,3,4-tetrahydro-1-naphthol
T1 sequence (P42330 whole entry): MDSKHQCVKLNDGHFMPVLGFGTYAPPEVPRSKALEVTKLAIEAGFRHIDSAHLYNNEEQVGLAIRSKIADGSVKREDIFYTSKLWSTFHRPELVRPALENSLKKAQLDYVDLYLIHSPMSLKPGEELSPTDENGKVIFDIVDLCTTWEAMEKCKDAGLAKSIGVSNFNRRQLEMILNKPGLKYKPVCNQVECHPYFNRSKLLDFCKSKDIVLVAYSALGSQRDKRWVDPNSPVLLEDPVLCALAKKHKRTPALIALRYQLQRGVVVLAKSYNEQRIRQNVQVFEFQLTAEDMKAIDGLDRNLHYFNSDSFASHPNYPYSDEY

[2] = target: T2, Aldo-keto reductase family 1 member C2 (Homo sapiens, UniProt P52895); experiment: Inhibition of human recombinant AKR1C2-mediated NADP+-dependent oxidation of S-(+)-1,2,3,4-tetrahydro-1-naphthol
T2 sequence (P52895 whole entry): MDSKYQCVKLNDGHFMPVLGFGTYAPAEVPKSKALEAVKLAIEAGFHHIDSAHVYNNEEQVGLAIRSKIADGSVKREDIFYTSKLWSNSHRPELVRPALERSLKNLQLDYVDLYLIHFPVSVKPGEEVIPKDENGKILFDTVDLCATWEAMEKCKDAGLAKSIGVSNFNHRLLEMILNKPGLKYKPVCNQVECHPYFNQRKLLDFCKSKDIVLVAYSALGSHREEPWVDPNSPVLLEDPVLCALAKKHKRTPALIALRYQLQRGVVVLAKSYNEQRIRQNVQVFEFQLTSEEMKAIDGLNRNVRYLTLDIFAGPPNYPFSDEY

[3] = target: T3, Aldo-keto reductase family 1 member C4 (Homo sapiens, UniProt P17516); experiment: Inhibition of human recombinant AKR1C4-mediated NADP+-dependent oxidation of S-(+)-1,2,3,4-tetrahydro-1-naphthol
T3 sequence (P17516 whole entry): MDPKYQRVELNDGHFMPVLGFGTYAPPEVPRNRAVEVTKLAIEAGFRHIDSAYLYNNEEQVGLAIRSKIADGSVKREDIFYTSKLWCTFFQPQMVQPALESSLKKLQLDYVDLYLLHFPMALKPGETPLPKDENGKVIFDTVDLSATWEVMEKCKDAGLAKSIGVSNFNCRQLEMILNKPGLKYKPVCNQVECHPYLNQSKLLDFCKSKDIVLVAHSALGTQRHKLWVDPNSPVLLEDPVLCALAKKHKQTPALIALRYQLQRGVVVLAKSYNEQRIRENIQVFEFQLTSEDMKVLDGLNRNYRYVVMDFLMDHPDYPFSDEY

[4] = target: T4, Aldo-keto reductase family 1 member C1 (Homo sapiens, UniProt Q04828); experiment: Inhibition of human recombinant AKR1C1-mediated NADP+-dependent oxidation of S-(+)-1,2,3,4-tetrahydro-1-naphthol
T4 sequence (Q04828 whole entry): T2 sequence (P52895 whole entry) with V38T, H47R, V54L, S87C, M151V, H170R, L172Q

Structure (SMILES) | IC50 [1] | IC50 [2] | IC50 [3] | IC50 [4]
COc1ccc2c(c1)c(C)c(CCC(=O)NS(=O)(=O)c1ccc(C(C)=O)cc1)n2C(=O)c1ccc(Cl)cc1 | 2.65 µM | 27.4 µM | – | –
COc1ccc2c(c1)c1c(n2C(=O)c2cccc(C(F)(F)F)c2)CCC(C(=O)O)C1 (configuration not stated) | 0.279 µM | 100 µM | – | –
COc1ccc2c(c1)c(C)c(CCC(=O)NS(=O)(=O)c1ccccc1C)n2C(=O)c1ccc(Cl)cc1 | 3.25 µM | 21.1 µM | – | –
Cc1c(CCC(=O)O)c2cc(F)ccc2n1C(=O)c1ccc(Cl)cc1 | 0.29 µM | 13.5 µM | – | –
COc1ccc2c(c1)c(C)c(CCC(=O)NS(=O)(=O)c1ccc(C)cc1)n2C(=O)c1ccc(Cl)cc1 | 3.11 µM | 12.3 µM | – | –
COc1ccc2c(c1)c(C)c(CCC(=O)NS(=O)(=O)c1ccc(OC(F)(F)F)cc1)n2C(=O)c1ccc(Cl)cc1 | 2.5 µM | 40.4 µM | – | –
COc1ccc2c(c1)c(CC(=O)NS(=O)(=O)c1ccc(C(C)=O)cc1)cn2C(=O)c1ccc(Cl)cc1 | 2.09 µM | 17.3 µM | – | –
COC(=O)Cc1c(C)n(C(=O)c2ccc(OC)cc2)c2ccc(OC)cc12 | 7.59 µM | > 100 µM | – | –
COc1ccc2c(c1)c(CC(=O)O)cn2C(=O)c1ccc(C(F)(F)F)cc1 | 1.08 µM | > 100 µM | – | –
COc1ccc2c(c1)c(CC(=O)NS(=O)(=O)c1ccc(OC(F)(F)F)cc1)cn2C(=O)c1ccc(Cl)cc1 | 2.65 µM | 59.4 µM | – | –
COc1ccc2c(c1)c(CC(=O)O)c(C)n2C(=O)c1ccc(F)cc1 | 0.71 µM | 61 µM | – | –
COc1ccc(S(=O)(=O)NC(=O)Cc2cn(C(=O)c3ccc(Cl)cc3)c3ccc(OC)cc23)cc1 | 5.8 µM | 39.9 µM | – | –
COc1ccc2c(c1)c(CC(=O)NS(=O)(=O)c1ccc(C(C)C)cc1)cn2C(=O)c1ccc(Cl)cc1 | 6.34 µM | 7.9 µM | – | –
COc1ccc2c(c1)c(CC(=O)NS(=O)(=O)c1cc(C(F)(F)F)ccc1C(F)(F)F)cn2C(=O)c1ccc(Cl)cc1 | 1.94 µM | 19.3 µM | – | –
COc1ccc2c(c1)c(C)c(CC(C)C(=O)NS(C)(=O)=O)n2C(=O)c1ccc(Cl)cc1 (configuration not stated) | 5.53 µM | 116 µM | – | –
COc1ccc2[nH]c(C)c(CC(=O)O)c2c1 [DESCHLOROBENZOYL INDOMETHACIN] | > 100 µM | 100 µM | – | –
Cc1c(CC(=O)O)c2cc(F)ccc2n1C(=O)c1cccc(C(F)(F)F)c1 | 2.23 µM | 7.84 µM | – | –
COc1ccc2c(c1)c(CC(=O)O)cn2C(=O)c1cccc(C(F)(F)F)c1 | 5.21 µM | 100 µM | – | –
COC(=O)Cc1c(C)n(C(=O)c2ccc(C)cc2)c2ccc(OC)cc12 | 7.54 µM | 43.6 µM | – | –
COc1ccc2c(c1)c(CC(=O)NS(=O)(=O)c1ccc(Oc3ccccc3)cc1)cn2C(=O)c1ccc(Cl)cc1 | 2.52 µM | – | – | –
COc1ccc2c(c1)c1c(n2C(=O)c2ccc(Cl)cc2)CCC(C(=O)NS(C)(=O)=O)C1 (configuration not stated) | 5.07 µM | > 100 µM | – | –
COC(=O)Cc1cn(C(=O)c2ccc(Cl)cc2)c2ccc(OC)cc12 | 11.3 µM | > 100 µM | – | –
COc1ccc2c(c1)c(C)c(CC(C)(C)C(=O)O)n2C(=O)c1ccc(Cl)cc1 | 0.12 µM | 9.82 µM | – | –
COc1ccc2c(c1)c(C)c(CCC(=O)NS(=O)(=O)c1ccc3ccccc3c1)n2C(=O)c1ccc(Cl)cc1 | 2.54 µM | 72.3 µM | – | –
COc1ccc2c(c1)c(C)c(CCC(=O)NS(=O)(=O)c1ccc(C(F)(F)F)cc1)n2C(=O)c1ccc(Cl)cc1 | 1.11 µM | 33.7 µM | – | –
COC(=O)Cc1c(C)n(C(=O)c2ccc(C(F)(F)F)cc2)c2ccc(OC)cc12 | 15.7 µM | > 100 µM | – | –

Structure (SMILES) | IC50 [1] | IC50 [2] | IC50 [3] | IC50 [4]
CCC(=O)Cc1cn(C(=O)OC)c2ccc(OC)cc12 | 22.8 µM | > 100 µM | – | –
COc1ccc2c(c1)c(CC(=O)O)cn2C(=O)c1ccc(F)cc1 | 4.96 µM | > 100 µM | – | –
COc1ccc2c(c1)c(CC(=O)NS(=O)(=O)c1ccc(Br)cc1)cn2C(=O)c1ccc(Cl)cc1 | 3.97 µM | 39.9 µM | – | –
COc1ccc2c(c1)c(CC(=O)NS(=O)(=O)c1ccc(C#N)cc1)cn2C(=O)c1ccc(Cl)cc1 | 1.11 µM | 33 µM | – | –
COc1ccc2c(c1)c(CCC(=O)O)c(C)n2C(=O)c1ccc(Cl)cc1 | – | – | > 100 µM | –
COc1ccc2c(c1)c(CC(=O)NS(=O)(=O)c1ccc(C)cc1)cn2C(=O)c1ccc(Cl)cc1 | 12.4 µM | 42.7 µM | – | –
COC(=O)Cc1c(C)n(C(=O)c2ccc(Cl)cc2)c2ccc(OC)cc12 | 5.67 µM | > 100 µM | – | –
COc1ccc2c(c1)c(CC(=O)NS(=O)(=O)c1ccc(Cl)s1)cn2C(=O)c1ccc(Cl)cc1 | 3.73 µM | 15.1 µM | – | –
COc1ccc2c(c1)c1c(n2C(=O)c2ccc(Cl)cc2)CC(C(=O)O)CC1 (configuration not stated) | 0.34 µM | 48.2 µM | – | –
COc1ccc2c(c1)c(C)c(CCC(=O)NS(=O)(=O)c1ccc(C(C)C)cc1)n2C(=O)c1ccc(Cl)cc1 | 4.69 µM | 55.3 µM | – | –
COc1ccc2c(c1)c(CC(=O)O)c(C)n2C(=O)c1ccc(C)cc1 | – | – | > 100 µM | > 100 µM
O=C(O)Cc1cn(C(=O)c2ccc(Cl)cc2)c2ccc(F)cc12 | 0.5 µM | 23.3 µM | – | –
COc1ccc2c(c1)c(CC(=O)NS(=O)(=O)c1ccc(F)cc1)cn2C(=O)c1ccc(Cl)cc1 | 7.86 µM | 39.9 µM | – | –
CCC(=O)Cc1cn(C(=O)O)c2ccc(OC)cc12 | 2.4 µM | 100 µM | – | –
COc1ccc(C(=O)n2c(C)c(CC(=O)O)c3cc(OC)ccc32)cc1 | 0.14 µM | 45.1 µM | – | –
COc1ccc2c(c1)c(CC(=O)NS(=O)(=O)c1ccc3ccccc3c1)cn2C(=O)c1ccc(Cl)cc1 | 1.19 µM | 16.8 µM | – | –
COc1ccc2c(c1)c(CC(=O)NS(C)(=O)=O)cn2C(=O)c1ccc(Cl)cc1 | 12 µM | 16.7 µM | – | –
COc1ccc2c(c1)c(CC(=O)NS(=O)(=O)c1ccccc1C)cn2C(=O)c1ccc(Cl)cc1 | 8.82 µM | 15.3 µM | – | –
COc1ccc2c(c1)c(CC(=O)NS(=O)(=O)C(F)(F)F)cn2C(=O)c1ccc(Cl)cc1 | – | – | > 100 µM | > 100 µM
COc1ccc2c(c1)c(CC(=O)NS(=O)(=O)C(F)(F)F)c(C)n2C(=O)c1ccc(Cl)cc1 | – | – | > 100 µM | > 100 µM
COc1ccc2c(c1)c(CC(=O)O)c(C)n2C(=O)c1ccc(C(F)(F)F)cc1 | – | – | > 100 µM | > 100 µM
COc1ccc2c(c1)c(C)c(CC(C)C(=O)O)n2C(=O)c1ccc(Cl)cc1 (racemic) | 0.29 µM | 12.3 µM | – | –
COc1ccc2c(c1)c(CC(=O)NS(C)(=O)=O)c(C)n2C(=O)c1ccc(Cl)cc1 | 2.24 µM | 65.4 µM | – | –
COc1ccc2c(c1)c(CC(=O)O)c(C)n2C(=O)c1cccc(C(F)(F)F)c1 | 2.44 µM | 19.5 µM | – | –
COc1ccc2c(c1)c(CC(=O)NS(=O)(=O)c1ccc(C(F)(F)F)cc1)cn2C(=O)c1ccc(Cl)cc1 | 2.07 µM | 38.2 µM | – | –
COc1ccc2c(c1)cc(C)n2C(=O)c1ccc(Cl)cc1 | 3.56 µM | 24 µM | – | –
